Data taken from publication PMC10135272, “Synthesis, Molecular Docking Study, and Biological Evaluation of New 4-(2,5-Dimethyl-1H-pyrrol-1-yl)-N’-(2-(substituted)acetyl)benzohydrazides as Dual Enoyl ACP Reductase and DHFR Enzyme Inhibitors” (Antibiotics, 2023).
In brackets after ≈: the same amount, converted by molar mass. Where two headings read alike, the source gives them in different places.

Legend:
[1] = tested on: S. aureus (Gram +ve); assay: Antibacterial activity, broth microdilution; assay type: cell-based; conditions: Staphylococcus aureus
[2] = tested on: E. coli (Gram −ve); assay: Antibacterial activity, broth microdilution; assay type: cell-based; conditions: Escherichia coli
[3] = target: MtDHFR (Mycobacterium tuberculosis, UniProt P9WNX1); assay: biochemical; assay type: biochemical; conditions: for MtDHFR inhibitory activity (in words): in vitro assay
Sequence of MtDHFR (P9WNX1 whole entry): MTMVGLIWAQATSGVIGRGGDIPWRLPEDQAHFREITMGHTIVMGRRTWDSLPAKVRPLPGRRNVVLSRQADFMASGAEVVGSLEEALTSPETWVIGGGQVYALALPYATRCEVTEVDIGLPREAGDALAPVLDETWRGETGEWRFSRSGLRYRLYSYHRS

[4] = tested on: M. tuberculosis H37Rv; assay: Antitubercular activity, Microplate Alamar Blue assay (MABA); assay type: cell-based; conditions: Mycobacterium tuberculosis, average of triplicate tests
[5] = MTT-based cytotoxicity; assay type: cell-based, human; conditions: human; MTT assay, A549 lung adenocarcinoma, means ± SEM of three independent experiments
Description: (§1) Cellular conversion of MTT (3-(4,5-dimethylthiazo-2-yl)-2,5-diphenyl-tetrazolium bromide) into a formazan product was performed to evaluate the cytotoxic activity (IC50) of some of the compounds against A549 (lung adenocarcinoma) MV cell lines up to a concentration of […] using a Promega Cell Titer 96 non-radioactive cell proliferation assay with cisplatin as the positive control. The IC50 values given in Table 6 are the averages ± SEM of three independent measurements.

[6] = target: InhA (enoyl ACP reductase) (Mycobacterium tuberculosis, UniProt P9WGR1); assay: Enoyl ACP reductase (InhA) inhibition; assay type: biochemical; conditions: for enoyl ACP reductase inhibitory activity (in words): in vitro assay
Sequence of InhA (enoyl ACP reductase) (P9WGR1 whole entry, looked up): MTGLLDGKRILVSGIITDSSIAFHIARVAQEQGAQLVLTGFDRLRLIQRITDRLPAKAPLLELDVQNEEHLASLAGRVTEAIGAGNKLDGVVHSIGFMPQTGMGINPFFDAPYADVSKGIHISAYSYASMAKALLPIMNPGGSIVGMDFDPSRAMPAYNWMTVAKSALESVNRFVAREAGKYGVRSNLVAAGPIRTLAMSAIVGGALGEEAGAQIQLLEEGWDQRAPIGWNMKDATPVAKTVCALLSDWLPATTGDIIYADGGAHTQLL

[7] = MTT-based cytotoxicity; assay type: cell-based; conditions: African green monkey; MTT assay, Mammalian Vero cell lines, means ± SEM of three independent experiments; read-out: IC50 MV Cell Lines (cytotoxicity)
Description: as §1

[8] = tested on: A549 (lung adenocarcinoma) cell lines; assay: MTT-based cytotoxicity; assay type: cell-based, human
Description: as §1

[9] = tested on: Mammalian Vero cell lines (MV cell lines); assay: MTT-based cytotoxicity; assay type: cell-based
Description: as §1

SMILES | MIC [1] [µg/mL] | MIC [2] [µg/mL] | IC50 [3] [µM] | MIC [4] [µg/mL] | MtDHFR inhibitory activity (in words) [3] | IC50 [5] [µM] | inhibition at 50 µM [6] [%] | enoyl ACP reductase inhibitory activity (in words) [6] | IC50 [7] [µM] | IC50 [8] [µM] | IC50 [9] [µM]
Cc1ccc(C)n1-c1ccc(C(=O)NNC(=O)Cc2cccc(Br)c2)cc1 [Compound 5m, 4-(2,5-Dimethyl-1H-pyrrol-1-yl)-N′-(2-(3-bromophenyl)acetyl)benzohydrazide] | 12.5 (≈ 29.3 µM) | 50 (≈ 117 µM) | 18 | 3.25 (≈ 7.62 µM) |  |  |  |  |  |  | 
Cc1ccc(C)n1-c1ccc(C(=O)NNC(=O)Cc2ccc(F)cc2)cc1 [Compound 5k, 4-(2,5-Dimethyl-1H-pyrrol-1-yl)-N′-(2-(4-flurophenyl)acetyl)benzohydrazide] | 1.6 (≈ 4.38 µM) | 50 (≈ 137 µM) | 10 | 0.8 (≈ 2.19 µM) | promising enzyme inhibitory activity | 219 ± 0.4 | 88 | promising enzyme inhibitory activity | 221 ± 0.3 |  | 
NC(=O)c1cnccn1 [Pyrazinamide, reference compound] |  |  |  | 3.12 (≈ 25.4 µM) |  |  |  |  |  |  | 
COc1ccc(CC(=O)NNC(=O)c2ccc(-n3c(C)ccc3C)cc2)cc1 [Compound 5d, 4-(2,5-Dimethyl-1H-pyrrol-1-yl)-N′-(2-(4-methoxyphenyl)acetyl)benzohydrazide] | 3.12 (≈ 8.27 µM) | 100 (≈ 265 µM) | 85 | 3.25 (≈ 8.61 µM) |  | 214 ± 0.2 | 32 |  | 214 ± 0.6 |  | 
Cc1ccc(CC(=O)NNC(=O)c2ccc(-n3c(C)ccc3C)cc2)cc1 [Compound 5c, 4-(2,5-Dimethyl-1H-pyrrol-1-yl)-N′-(2-(p-tolyl)acetyl)benzohydrazide] | 3.12 (≈ 8.63 µM) | 50 (≈ 138 µM) | 118 | 25 (≈ 69.2 µM) |  | 219 ± 0.7 | 20 |  | 221 ± 0.8 |  | 
Cc1ccc(C)n1-c1ccc(C(=O)NNC(=O)Cc2ccccc2Br)cc1 [Compound 5j, N′-(2-(2-Bromophenyl)acetyl)-4-(2,5-dimethyl-1H-pyrrol-1-yl)benzohydrazide] | 6.25 (≈ 14.7 µM) | 50 (≈ 117 µM) | 15 | 1.6 (≈ 3.75 µM) |  |  |  |  |  |  | 
[H]/N=C(/N)N[C@H]1[C@H](O)[C@@H](O)[C@H](O[C@@H]2O[C@@H](C)[C@](O)(C=O)[C@H]2O[C@@H]2O[C@@H](CO)[C@H](O)[C@@H](O)[C@@H]2NC)[C@@H](N/C(N)=N\[H])[C@@H]1O [Streptomycin, reference compound] |  |  |  | 6.25 (≈ 10.7 µM) |  |  |  |  |  |  | 
Cc1ccc(C)n1-c1ccc(C(=O)NNC(=O)Cc2ccccc2Cl)cc1 [Compound 5g, N′-(2-(2-Chlorophenyl)acetyl)-4-(2,5-dimethyl-1H-pyrrol-1-yl)benzohydrazide] | 3.12 (≈ 8.17 µM) | 50 (≈ 131 µM) | 26 | 3.25 (≈ 8.51 µM) |  |  |  |  |  |  | 
Cc1ccc(C)n1-c1ccc(C(=O)NNC(=O)Cc2ccc([N+](=O)[O-])cc2)cc1 [Compound 5n, 4-(2,5-Dimethyl-1H-pyrrol-1-yl)-N′-(2-(4-nitrophenyl)acetyl)benzohydrazide] | 12.5 (≈ 31.9 µM) | 50 (≈ 127 µM) | 15 | 1.6 (≈ 4.08 µM) |  |  |  |  |  |  | 
Cc1ccccc1CC(=O)NNC(=O)c1ccc(-n2c(C)ccc2C)cc1 [Compound 5b, 4-(2,5-Dimethyl-1H-pyrrol-1-yl)-N′-(2-(o-tolyl)acetyl)benzohydrazide] | 0.8 (≈ 2.21 µM) | 50 (≈ 138 µM) | 125 | 25 (≈ 69.2 µM) |  |  |  |  |  |  | 
Cc1ccc(C)n1-c1ccc(C(=O)NNC(=O)Cc2ccccc2)cc1 [Compound 5a, 4-(2,5-Dimethyl-1H-pyrrol-1-yl)-N′-(2-phenylacetyl)benzohydrazide] | 50 (≈ 144 µM) | 50 (≈ 144 µM) | 146 | 25 (≈ 72 µM) |  |  |  |  |  |  | 
O=C(O)c1cn(C2CC2)c2cc(N3CCNCC3)c(F)cc2c1=O [Ciprofloxacin, reference compound] | 2 (≈ 6.04 µM) | 2 (≈ 6.04 µM) |  |  |  |  |  |  |  |  | 
Cc1ccc(C)n1-c1ccc(C(=O)NNC(=O)Cc2ccc(O)cc2)cc1 [Compound 5l, 4-(2,5-Dimethyl-1H-pyrrol-1-yl)-N′-(2-(4-hydroxyphenyl)acetyl)benzohydrazide] | 6.25 (≈ 17.2 µM) | 50 (≈ 138 µM) | 30 | 3.25 (≈ 8.94 µM) |  |  |  |  |  |  | 
Cc1ccc(C)n1-c1ccc(C(=O)NNC(=O)Cc2cccc(Cl)c2)cc1 [Compound 5h, N′-(2-(3-Chlorophenyl)acetyl)-4-(2,5-dimethyl-1H-pyrrol-1-yl)benzohydrazide] | 6.25 (≈ 16.4 µM) | 50 (≈ 131 µM) | 30 | 3.25 (≈ 8.51 µM) |  |  |  |  |  |  | 
Cc1ccc(C)n1-c1ccc(C(=O)NNC(=O)Cc2ccc(Cl)cc2)cc1 [Compound 5f, N′-(2-(4-Chlorophenyl)acetyl)-4-(2,5-dimethyl-1H-pyrrol-1-yl)benzohydrazide] | 1.6 (≈ 4.19 µM) | 50 (≈ 131 µM) | 25 | 1.6 (≈ 4.19 µM) | promising enzyme inhibitory activity | 216 ± 0.5 | 76 | promising enzyme inhibitory activity | 215 ± 0.2 |  | 
NNC(=O)c1ccncc1 [INH, reference compound] |  |  |  |  |  |  |  |  |  | > 450 | > 450
COc1ccccc1CC(=O)NNC(=O)c1ccc(-n2c(C)ccc2C)cc1 [Compound 5e, 4-(2,5-Dimethyl-1H-pyrrol-1-yl)-N′-(2-(2-methoxyphenyl)acetyl)benzohydrazide] | 6.25 (≈ 16.6 µM) | 100 (≈ 265 µM) | 78 | 6.25 (≈ 16.6 µM) |  |  |  |  |  |  | 
Cc1ccc(C)n1-c1ccc(C(=O)NNC(=O)Cc2ccc(Br)cc2)cc1 [Compound 5i, N′-(2-(4-Bromophenyl)acetyl)-4-(2,5-dimethyl-1H-pyrrol-1-yl)benzohydrazide] | 6.25 (≈ 14.7 µM) | 50 (≈ 117 µM) | 18 | 1.6 (≈ 3.75 µM) | promising enzyme inhibitory activity | 214 ± 0.4 | 72 | promising enzyme inhibitory activity | 218 ± 0.3 |  | 
